The values below come from PubChem BioAssay (NCI).

Structures are written as SMILES.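 These data come from cells grown in 96-well plates and exposed to compound for 48 hours at five concentrations. At the TGI there is no net growth.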 Some results are limits rather than exact numbers.

Holding throughout (test): inhibition of tumour cell growth, NCI panel, 48 h
For experiment [1], the system named is A498 renal.
Experiment [2] relates to A549 NSCLC.
Experiment [3] has as its system ACHN renal.
The subject of experiment [4] is CCRF-CEM leukemia.
For experiment [5], the system named is EKVX NSCLC.
Experiment [6] deals with HCC-2998 colon.
In experiment [7] the test system is HCT-116 colon.
The test system of experiment [8] is HCT-15 colon.
Experiment [9] relates to M14 melanoma.
Experiment [10] concerns NCI-H226 lung.
Experiment [11] relates to SF-268 CNS.
Experiment [12] concerns SF-539 CNS.
The test system of experiment [13] is SK-MEL-2 melanoma.
The subject of experiment [14] is SK-MEL-5 melanoma.
Experiment [15] has as its system SN12C renal.
In experiment [16] the test system is SR leukemia.
In experiment [17] the test system is TK-10 renal.
Experiment [18] deals with UACC-62 melanoma.
For experiment [19], the system named is UO-31 renal.
Experiment [20] concerns MCF7 breast.

Consider `Cc1ccc(NC(=O)/C(C#N)=C/c2ccccc2)c(C)c1`, for which the TGI in [1], in experiment [2], in experiment [3], in experiment [4], in experiment [5] and in experiment [6] was more than 100 µM each time. Besides, the TGI in [7], in experiment [8], in [9], in experiment [10], in [11] and in [12] was more than 100 µM throughout. The TGI in experiment [13], in [14], in experiment [15], in [16], in experiment [17] and in [18] was more than 100 µM throughout. In experiment [19], this compound displayed a TGI of more than 100 µM.

`O=c1ccc2ccccc2c2ccccc12`: the TGI in [1] came to 52.2 µM; in experiment [2], 31.8 µM; in experiment [3] it was 12.4 µM; in experiment [4] it was 11.4 µM; in experiment [5] it was 35.8 µM; in experiment [6] it was 21.4 µM. In addition, the TGI in experiment [7] was 11.4 µM; in experiment [8] it was 5.64 µM; in experiment [9], 6.52 µM; in experiment [10], 15.1 µM; in experiment [11], 6.19 µM; in [12] it was 4.09 µM. In addition, the TGI was found to be 16.2 µM in experiment [13]; 12.7 µM in experiment [14]; 6.44 µM in experiment [15]; 4.66 µM in experiment [16]; 28 µM in experiment [17]; 7.12 µM in experiment [18]. Further, the TGI in [19] stood at 13.8 µM.

Take `CSc1ccc2c(cc1=O)C(NC(=O)c1ccc(C#N)cc1)CCc1cc(O)c(O)c(O)c1-2` (stereo not drawn): the TGI in experiment [1] is more than 100 µM; in [2] it was more than 100 µM; in experiment [3], more than 100 µM; in experiment [4], 57.8 µM; in [5] it was more than 100 µM; in experiment [6], 81.6 µM. Besides, the TGI in experiment [7] was 32.5 µM; in experiment [8], 36.6 µM; in [9], 89.6 µM; in [10] it was 59.1 µM; in [11], more than 100 µM; in experiment [12] it was 36.1 µM. Also, the TGI in [14] is 71.5 µM; in experiment [15], 40.3 µM; in experiment [16], 48.7 µM; in experiment [17], more than 100 µM; in [18] it was 46.3 µM; in [19], more than 100 µM.

For `O=C(Nc1ccc2[nH]c(C(=O)N3CC(CCl)c4ccc([N+](=O)[O-])cc43)cc2c1)c1cc2ccccc2o1` (stereo not drawn), the TGI in [1], in [2], in experiment [4], in experiment [5], in experiment [6] and in [7] was more than 1100 µM each time. Besides, the TGI in experiment [8], in experiment [9], in [20], in experiment [10], in [11] and in experiment [12] was more than 1100 µM each time. Further, the TGI in experiment [13], in experiment [14], in experiment [15], in [18] and in experiment [19] was more than 1100 µM each time.

Consider `NC(=O)c1sc2nc3ccccc3n2c1N`, for which the TGI in experiment [1], in [2], in experiment [3], in experiment [4], in experiment [5] and in experiment [6] was more than 100 µM each time. Also, the TGI in [7], in experiment [8], in experiment [9], in experiment [20], in experiment [10] and in experiment [11] was more than 100 µM in each case. Also, the TGI in experiment [12] is 45.9 µM; in experiment [13], 99.2 µM; in experiment [14], more than 100 µM; in experiment [17], more than 100 µM; in [18], more than 100 µM; in [19], more than 100 µM.

As for `CN(C)CC(/C(Cc1ccccc1)=N\NC(=S)NN)c1ccccc1` (stereo not drawn), the TGI in [2], in [3], in [6], in experiment [7], in experiment [8] and in experiment [9] was more than 100 µM in each case. Besides, the TGI in [10], in experiment [11], in experiment [12], in experiment [15], in experiment [16] and in experiment [17] was more than 100 µM each time. For the same compound, the TGI in experiment [18] and in experiment [19] was more than 100 µM each time.

For `Nc1nc2ncn(CC(O)CO)c2c(=O)[nH]1` (stereo not drawn), the TGI in [1], in experiment [2], in experiment [3], in experiment [4], in experiment [5] and in experiment [7] was more than 100 µM in each case. The TGI in [8], in [9], in experiment [10], in experiment [11], in [12] and in experiment [13] was more than 100 µM in each case. For the same compound, the TGI in [14], in experiment [15], in [16], in experiment [17], in experiment [18] and in [19] was more than 100 µM in each case.

Regarding `CC(=O)NCCCCN(CCCNC(C)=O)C(=O)OCc1ccccc1`, the TGI in experiment [1], in experiment [2], in experiment [3], in experiment [4], in [5] and in experiment [6] was more than 100 µM in each case. In addition, the TGI in experiment [7], in [8], in experiment [9], in [20], in experiment [10] and in experiment [11] was more than 100 µM in each case. In addition, the TGI in experiment [12], in experiment [13], in [14], in experiment [15], in experiment [17] and in [18] was more than 100 µM throughout. The compound further yielded a TGI in [19] of more than 100 µM.

Consider `COc1cc(-c2cc(=O)c3ccccc3[nH]2)cc(OC)c1OC`, for which the TGI in [2], in [3], in experiment [4], in [5], in experiment [6] and in experiment [7] was more than 75 µM throughout. Besides, the TGI in experiment [8], in experiment [9], in experiment [11], in experiment [12], in [15] and in experiment [16] was more than 75 µM each time. Further, the TGI in experiment [17], in experiment [18] and in [19] was more than 75 µM throughout.

With `CNC(=O)CCCNC(=O)CCCC(=O)OC`, the TGI in experiment [1], in [2], in [3], in experiment [4], in [5] and in [6] was more than 100 µM in each case. Also, the TGI in experiment [7], in experiment [8], in experiment [9], in [20], in experiment [10] and in experiment [11] was more than 100 µM throughout. For the same compound, the TGI in [12], in experiment [13], in [14], in [15], in experiment [17] and in experiment [18] was more than 100 µM throughout. In [19], this compound displayed a TGI of more than 100 µM.

For the compound `CC(=O)Nc1ccc(S(=O)(=O)NN(C)S(=O)(=O)c2ccc(C)cc2)cc1`, the TGI in experiment [1], in experiment [2], in experiment [3], in experiment [4], in experiment [5] and in experiment [6] was more than 100 µM each time. Further, the TGI in [7], in experiment [9], in experiment [11], in experiment [12], in [13] and in experiment [14] was more than 100 µM throughout. In addition, the TGI in experiment [15], in experiment [16], in [17], in [18] and in experiment [19] was more than 100 µM throughout.

As for `O=C(Nc1nc2ncn(CCO)c2c(=O)[nH]1)c1ccccc1`, the TGI in [1], in experiment [2], in [3], in experiment [4], in experiment [5] and in [7] was more than 100 µM each time. For the same compound, the TGI in [8], in experiment [9], in experiment [10], in experiment [11], in experiment [12] and in [13] was more than 100 µM throughout. Besides, the TGI in experiment [14], in experiment [15], in experiment [16], in experiment [17], in [18] and in experiment [19] was more than 100 µM each time.

On to `COc1ccc(C(=O)Oc2c(C#N)sc3c2c(=O)n(-c2ccccc2)c(=S)n3-c2ccccc2)cc1`, for which the TGI is 41.4 µM in experiment [1]; more than 100 µM in [2]; more than 100 µM in experiment [3]; 74 µM in experiment [4]; 31.3 µM in [5]; 84.8 µM in [6]. Also, the TGI is 48.9 µM in [7]; 46.3 µM in experiment [8]; 44.8 µM in experiment [9]; 80.4 µM in experiment [20]; 57 µM in experiment [10]; more than 100 µM in experiment [11]. Moreover, the TGI in experiment [12] amounted to 49.3 µM; in [14] it was 58 µM; in experiment [15], 68.2 µM; in experiment [17], 76 µM; in experiment [18], 24.5 µM; in [19] it was 3.94 µM.

On to `c1cc(CN2CCNCCNCCNCC2)cc(CN2CCNCCNCCNCC2)c1`, for which the TGI in experiment [2], in [3], in [5], in experiment [6], in [7] and in [9] was more than 100 µM in each case. In addition, the TGI in experiment [20], in [10], in experiment [11], in experiment [12], in experiment [13] and in experiment [14] was more than 100 µM each time. Further, the TGI in experiment [15], in experiment [16], in experiment [17], in experiment [18] and in [19] was more than 100 µM throughout.

Take `COC(=O)CCC(NC(=S)N/N=C(\C)c1cnccn1)C(=O)OC` (stereo not drawn): the TGI was more than 100 µM in experiment [1]; more than 100 µM in [2]; more than 100 µM in experiment [3]; 58.1 µM in experiment [4]; more than 100 µM in experiment [5]; more than 100 µM in experiment [6]. In addition, the TGI in experiment [7], in [8], in experiment [9], in experiment [10], in [11] and in experiment [12] was more than 100 µM in each case. The TGI is more than 100 µM in experiment [13]; more than 100 µM in experiment [14]; more than 100 µM in experiment [15]; more than 100 µM in experiment [16]; more than 100 µM in experiment [17]; 90.2 µM in experiment [18]. Besides, the TGI in experiment [19] was more than 100 µM.

Take `CSC(=N)N1N=C2/C(=C/c3ccccc3)CCC[C@H]2[C@H]1c1ccccc1`: the TGI in experiment [1] was 18.4 µM; in experiment [2] it was 16.3 µM; in experiment [3] it was 11.8 µM; in experiment [4] it was 8.2 µM; in [5], 19.4 µM; in experiment [6], 10.4 µM. In addition, the TGI in [7] worked out at 9.83 µM; in experiment [8], 20.9 µM; in experiment [9] it was 14.8 µM; in experiment [10] it was 11.2 µM; in experiment [11] it was 37.9 µM; in experiment [12], 19.5 µM. In addition, the TGI in experiment [13] worked out at 15.4 µM; in experiment [15], 14.1 µM; in experiment [16], 4.6 µM; in [17], 25.8 µM; in experiment [18], 23.9 µM; in [19] it was 13.4 µM.
